Calls of active or inactive are those of the source. No cut-off for these calls is given here.
Test system: Vesicular stomatitis virus
Assay: Antiviral activity against VSV pseudoparticles infected in human Huh7.5 cells infected with VSV pseudoparticles expressed in 293T cells with plasmid encoding vesicular stomatitis G protein, envelope and Vpr deficient HIV vector carrying luciferase reporter gene inserted into Nef position assessed as inhibition of pseudoparticle entry at 6.25 to 100 uM after 72 hrs by luciferase reporter gene assay
Type: functional, organism-based

| Structure (SMILES) | inhibition |
| --- | --- |
| C/C(=C\CC[C@]1(C)[C@@H](C(=O)O)C[C@H]1[C@](C)(O)C(=O)O)C(=O)O | inactive |
| CC(=O)[C@@H]1C[C@H](C(=O)O)[C@@]1(C)CC/C=C(\C)C(=O)O | inactive |

— ChEMBL document CHEMBL4330116, “Harzianoic acids A and B, new natural scaffolds with inhibitory effects against hepatitis C virus” (Bioorg Med Chem, 2019)
